Test results from ChEMBL document CHEMBL1201862, “PubChem BioAssay data set” (2004).
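1) Cells in 96-well plates. 2) Compound, 48 h, 5 concentrations. 3) Linear interpolation between surrounding doses. 4) Unreached endpoint = highest concentration. GI50: concentration for 50% inhibition of growth.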 Calls of active or inactive are those of the source. No stated cut-off is given here; in the data, active = GI50 up to about 1.1 µM and inactive = higher.

What was measured:
Assay in all cases: inhibition of tumour cell growth, NCI panel, 48 h
A549 = tested on: A549
CCRF-CEM = tested on: CCRF-CEM
COLO 205 = tested on: COLO 205
EKVX = tested on: EKVX
KM12 = tested on: KM12
LOX IMVI = tested on: LOX IMVI
M19-MEL = tested on: M19-MEL
Malme-3M = tested on: Malme-3M
SK-MEL-5 = tested on: SK-MEL-5
SNB-19 = tested on: SNB-19
SW-620 = tested on: SW-620
UACC-62 = tested on: UACC-62
A498 = tested on: A498
BT-549 = tested on: BT-549
HCC 2998 = tested on: HCC 2998
MDA-MB-231 = tested on: MDA-MB-231
MDA-MB-435 = tested on: MDA-MB-435
MDA-N = tested on: MDA-N
OVCAR-3 = tested on: OVCAR-3
OVCAR-5 = tested on: OVCAR-5

Structure (SMILES)	GI50 (A549)	GI50 (CCRF-CEM)	GI50 (COLO 205)	GI50 (EKVX)	GI50 (KM12)	GI50 (LOX IMVI)	GI50 (M19-MEL)	GI50 (Malme-3M)	GI50 (SK-MEL-5)	GI50 (SNB-19)	GI50 (SW-620)	GI50 (UACC-62)	GI50 (A498)	GI50 (BT-549)	GI50 (HCC 2998)	GI50 (MDA-MB-231)	GI50 (MDA-MB-435)	GI50 (MDA-N)	GI50 (OVCAR-3)	GI50 (OVCAR-5)
O=C1CCCCCCC2=C1C(Sc1ccccc1)CC2 (configuration not stated)	45.5 µM (inactive)	9.08 µM (inactive)	62.8 µM (inactive)	20.5 µM (inactive)	23.2 µM (inactive)	15.8 µM (inactive)	50.2 µM (inactive)	> 100 µM (inactive)	30.5 µM (inactive)	40.3 µM (inactive)	36.3 µM (inactive)	36.1 µM (inactive)	–	–	–	–	–	–	–	–
C#CCn1c(=O)c(C)cn(/C(=C/C(=O)OCC)C(=O)OCC)c1=O	16.2 µM (inactive)	1.04 µM (active)	2.38 µM (inactive)	5.87 µM (inactive)	17.4 µM (inactive)	10.4 µM (inactive)	–	1.59 µM (inactive)	11.7 µM (inactive)	14.6 µM (inactive)	1.67 µM (inactive)	12.2 µM (inactive)	16 µM (inactive)	8.11 µM (inactive)	17.8 µM (inactive)	15.3 µM (inactive)	6.35 µM (inactive)	15 µM (inactive)	7.16 µM (inactive)	3.64 µM (inactive)
COc1cc(/C=C2\N=C(c3ccccc3)N(c3nc4ccc(Sc5ccccc5)cc4[nH]3)C2=O)ccc1O	30.5 µM (inactive)	6.14 µM (inactive)	18 µM (inactive)	31.5 µM (inactive)	15.2 µM (inactive)	25.5 µM (inactive)	–	18 µM (inactive)	14.7 µM (inactive)	31.8 µM (inactive)	21.7 µM (inactive)	15.2 µM (inactive)	21.3 µM (inactive)	20 µM (inactive)	15.8 µM (inactive)	25.6 µM (inactive)	3.56 µM (inactive)	5.13 µM (inactive)	30.5 µM (inactive)	26.1 µM (inactive)
Cn1c(=S)[nH]c(N)c(Cc2ccccc2)c1=O	> 100 µM (inactive)	> 100 µM (inactive)	> 100 µM (inactive)	92.5 µM (inactive)	66.1 µM (inactive)	> 100 µM (inactive)	–	78 µM (inactive)	> 100 µM (inactive)	> 100 µM (inactive)	> 100 µM (inactive)	40.2 µM (inactive)	32.1 µM (inactive)	> 100 µM (inactive)	> 100 µM (inactive)	> 100 µM (inactive)	> 100 µM (inactive)	> 100 µM (inactive)	> 100 µM (inactive)	> 100 µM (inactive)
CCOC(=O)C(Cc1ccc(N(CCCl)CCCl)cc1)NC(=O)CCCN1C(=O)CN=C(c2ccccc2)c2cc(Cl)ccc21 (configuration not stated)	39.1 µM (inactive)	2.61 µM (inactive)	16.2 µM (inactive)	41.3 µM (inactive)	25.5 µM (inactive)	3.18 µM (inactive)	–	2.35 µM (inactive)	12.4 µM (inactive)	> 100 µM (inactive)	10.2 µM (inactive)	2.72 µM (inactive)	39.9 µM (inactive)	41.9 µM (inactive)	12.4 µM (inactive)	22.1 µM (inactive)	16.1 µM (inactive)	6.11 µM (inactive)	2.22 µM (inactive)	> 100 µM (inactive)
CCN(CC)c1ccc(/C=C/C2=NN(c3cccc(S(=O)(=O)O)c3)C3(C2)C(Cl)C(=O)N3c2nc3ccccc3s2)cc1 (configuration not stated)	11.2 µM (inactive)	1.83 µM (inactive)	14.1 µM (inactive)	8.79 µM (inactive)	7.83 µM (inactive)	2.82 µM (inactive)	–	11.1 µM (inactive)	6.71 µM (inactive)	12.5 µM (inactive)	10.2 µM (inactive)	7.91 µM (inactive)	12 µM (inactive)	9.25 µM (inactive)	7.36 µM (inactive)	7.8 µM (inactive)	5.87 µM (inactive)	12.4 µM (inactive)	4.11 µM (inactive)	23.1 µM (inactive)
CC1=C(C#N)C2C(=C(N)Oc3ccccc32)C(N)=N1 (configuration not stated)	38.3 µM (inactive)	30.1 µM (inactive)	26.1 µM (inactive)	25.4 µM (inactive)	26.4 µM (inactive)	20.1 µM (inactive)	–	16 µM (inactive)	23.7 µM (inactive)	21.8 µM (inactive)	32.9 µM (inactive)	20.7 µM (inactive)	24 µM (inactive)	32 µM (inactive)	29.4 µM (inactive)	14 µM (inactive)	27.7 µM (inactive)	21.8 µM (inactive)	44.8 µM (inactive)	24.8 µM (inactive)
CC(C)(C)c1cc(C(O)(C(F)(F)F)C(F)(F)F)c2c(c1)C(C(F)(F)F)(C(F)(F)F)OC(C)(C(C)(C)C)N2 (configuration not stated)	3.59 µM (inactive)	–	2.05 µM (inactive)	3.94 µM (inactive)	3.94 µM (inactive)	–	3.05 µM (inactive)	6.65 µM (inactive)	2.01 µM (inactive)	5.41 µM (inactive)	3.68 µM (inactive)	3.58 µM (inactive)	–	–	6.56 µM (inactive)	–	–	–	0.776 µM (active)	7.13 µM (inactive)
CC12CO[C@@](C)(CC(S(=O)(=O)c3ccccc3)C1)O2 (some centres not stated)	> 100 µM (inactive)	> 100 µM (inactive)	> 100 µM (inactive)	> 100 µM (inactive)	> 100 µM (inactive)	–	> 100 µM (inactive)	> 100 µM (inactive)	> 100 µM (inactive)	> 100 µM (inactive)	> 100 µM (inactive)	> 100 µM (inactive)	–	–	> 100 µM (inactive)	–	–	–	> 100 µM (inactive)	> 100 µM (inactive)
CCN(CC)CC(O)c1ccc2ccc3ccccc3c2c1 (configuration not stated)	15.7 µM (inactive)	23.7 µM (inactive)	13.9 µM (inactive)	14.1 µM (inactive)	15.4 µM (inactive)	17.9 µM (inactive)	–	16.9 µM (inactive)	13.9 µM (inactive)	14.7 µM (inactive)	18.5 µM (inactive)	15.3 µM (inactive)	12.6 µM (inactive)	15.8 µM (inactive)	11 µM (inactive)	14.5 µM (inactive)	16.3 µM (inactive)	15.6 µM (inactive)	15.7 µM (inactive)	13.6 µM (inactive)
C=C1C(=O)OC2/C=C(\CO)C3OC3C3OC3(C)CC(OC(=O)/C(=C/C)CO)C12 (configuration not stated)	> 100 µM (inactive)	9.33 µM (inactive)	34.4 µM (inactive)	44 µM (inactive)	> 100 µM (inactive)	48.6 µM (inactive)	–	25.5 µM (inactive)	> 100 µM (inactive)	> 100 µM (inactive)	30.1 µM (inactive)	57.3 µM (inactive)	> 100 µM (inactive)	45.4 µM (inactive)	> 100 µM (inactive)	> 100 µM (inactive)	53.8 µM (inactive)	36.6 µM (inactive)	> 100 µM (inactive)	50.7 µM (inactive)
Oc1cc(-c2ccc(F)cc2)nc2ncc(Cl)cc12	35.5 µM (inactive)	18.7 µM (inactive)	22.3 µM (inactive)	30.3 µM (inactive)	6.17 µM (inactive)	28.6 µM (inactive)	–	15.7 µM (inactive)	6.93 µM (inactive)	38 µM (inactive)	11.1 µM (inactive)	9.71 µM (inactive)	17.4 µM (inactive)	> 100 µM (inactive)	58.6 µM (inactive)	> 65.5 µM (inactive)	2.82 µM (inactive)	2.94 µM (inactive)	20.6 µM (inactive)	55.3 µM (inactive)
O=C1c2cccnc2C(=O)c2c1nc1ccccc1c2-c1cncc(-c2c3c(nc4ccccc24)C(=O)c2cccnc2C3=O)c1	0.37 µM (active)	0.198 µM (active)	0.525 µM (active)	0.264 µM (active)	0.212 µM (active)	0.139 µM (active)	–	0.28 µM (active)	0.0568 µM (active)	0.22 µM (active)	0.041 µM (active)	0.474 µM (active)	2.56 µM (inactive)	0.502 µM (active)	0.359 µM (active)	0.237 µM (active)	0.256 µM (active)	0.399 µM (active)	0.0752 µM (active)	1.8 µM (inactive)
CCc1ccc(/C=C/C(=O)C2CN(CC)CCC2(O)/C=C/c2ccc(CC)cc2)cc1 (configuration not stated)	7.08 µM (inactive)	1.87 µM (inactive)	2.45 µM (inactive)	4.75 µM (inactive)	1.87 µM (inactive)	1.51 µM (inactive)	–	7.31 µM (inactive)	4.36 µM (inactive)	7.62 µM (inactive)	1.88 µM (inactive)	4.92 µM (inactive)	10.7 µM (inactive)	4.68 µM (inactive)	2.22 µM (inactive)	2.23 µM (inactive)	1.88 µM (inactive)	3.23 µM (inactive)	1.71 µM (inactive)	3.16 µM (inactive)
COc1ccc2cc(CN3CCC(C4CCNCC4)CC3)ccc2c1	12.2 µM (inactive)	1.96 µM (inactive)	1.69 µM (inactive)	5.02 µM (inactive)	2.11 µM (inactive)	1.6 µM (inactive)	–	1.72 µM (inactive)	1.79 µM (inactive)	6.65 µM (inactive)	1.82 µM (inactive)	1.97 µM (inactive)	5.33 µM (inactive)	8.67 µM (inactive)	0.412 µM (active)	2.2 µM (inactive)	1.91 µM (inactive)	2.02 µM (inactive)	5.41 µM (inactive)	7.76 µM (inactive)
